In patent US9750723B2, “Prevention and treatment of non-alcoholic fatty liver disease” (Ohio University, priority 2014, dated 2017):

What was measured:
[1] = system: C57BL/6J mice on the HFD; experiment: Evaluation of phenylmethimazole in preventing NAFLD in mice (Example 2); type: in vivo
Description: Triglycerides were quantified in accordance with the following general protocol, based upon the Salmon and Flatt Method of Liver Saponification. 50-100 mg of liver tissue was placed into an Eppendorf tube and weighed. Equal volume per weight of 3 M KOH (in 65% EtOH) was added to the tube and vortexed. The tube was placed at 70° C. for 1 hr to activate digestion. The tubes were vortexed every 15 minutes. The tube was set at room temperature overnight to allow for complete digestion, and was vortexed periodically. The sample was diluted to a final concentration of 100 mg of liver tissue per 600 μl fluid; the sample was diluted by adding 2 M Tris-HCl (un-pHed) to a final concentration of 50 mM. Where a second dilution was required, the sample was diluted using 50 mM Tris-HCl (pH 7.5). Triglycerides-GPO (0.5 mL, liquid; Pointe Scientific Cat. No. T7532-500; Fisher Scientific, Pittsburgh, Pa.) were aliquoted into Eppendorf tubes and warmed in a 37° C. water bath for 5-10 minutes. Glycerol standards (0, 1, 2.5, 5, 7.5 and 10 mmol/L) were made by diluting 10 mmol/L stock of glycerol, such as, e.g., with 50 mM Tris-HCl. 5 μL of the sample and glycerol standards (0, 1, 2.5, 5, 7.5 and 10 mmol/L) were added to 0.5 mL of the triglycerides-GPO, mixed, and incubated at room temperature for 5 minutes. The mixture was then vortexed and added (200 μL) to each well of a 96-well flat-bottom ELISA plate (in duplicate). Absorbance (i.e., optical density) was read at 500 nm. The concentrations of the samples were determined via use of a plot of glycerol standards concentration (mmol/L) with respect to optical density (i.e., O.D.) at 500 nm. The concentration of glycerol (mg glycerol/g tissue) was then calculated and triglyceride concentration was determined, in accordance with calculations known to those of ordinary skill in the art.
Experimental Protocol. 7 week old male C57BL/6J mice were placed on either a LFD (i.e., having a fat content of 10%, N=8) or a HFD (i.e., having a fat content of 60%, N=40). The mice placed on the LFD served as a control. […]
After 18 weeks, all of the C57BL/6J mice were euthanized. […] More specifically, NAFLD was evaluated in the liver tissue of the euthanized C57BL/6J mice microscopically and molecularly. Following euthanasia, the liver of each mouse was removed and divided, wherein one portion was used for the microscopic analysis of NAFLD and another portion was used for the molecular analysis of NAFLD (i.e., quantification of triglycerides). Quantification of triglycerides was performed in accordance with the general protocol described in Example 1.

[2] = system: patient having NAFLD; experiment: Therapeutic use of phenylmethimazole to treat NAFLD (Example 5); type: in vivo, human; details: once daily oral dose of 3 mg/kg for 16 weeks, contemplated result
Description: Experimental Protocol. A patient having NAFLD is prescribed phenylmethimazole to reduce the fat content in their liver. After determination of a baseline level of fat content in their liver, the patient takes a once daily oral dose of 3 mg/kg of body weight of phenylmethimazole for a period of 16 weeks, during which fat content in their liver tissue is determined via liver function testing, liver ultrasound, and liver biopsy.

[3] = system: C57BL/6J mice placed on an HFD; experiment: Evaluation of phenylmethimazole in treating NAFLD in C57BL/6J mice fed high fat diet (Example 3); type: in vivo; details: HFD mice with NAFLD, ip once daily 1, 3 or 10 mg/kg/day for 16 weeks (up to 24 weeks); contemplated result
Description: Experimental Protocol. C57BL/6J mice are placed on an HFD containing 60% fat (by % Kcal) (Diet #D12492, Research Diets, Inc.) for a period of weeks (as determined by the results of Example 1) until development of NAFLD is observed and clearly distinguishable from LFD-fed mice of the same age (between 4-8 weeks). At the time or after NAFLD is observed, once daily ip injections of phenylmethimazole (i.e., C10), DMSO, or sham are administered. 5 mice are then euthanized weekly thereafter to characterize the effects of C10, DMSO, and/or sham on treatment of NAFLD for the period of 16 weeks post-initiation of C10, DMSO, and sham administration. The period of time for which treatment is administered will be extended to 24 weeks if no effect of C10 administration on treatment of NAFLD is observed. The following Table further illustrates the experimental design: […]
NAFLD is evaluated in the liver of the HFD mice macroscopically, microscopically, and molecularly. […] Then, the liver of each mouse is split in half, wherein one half is used for microscopic analysis of NAFLD and the remaining half is used for molecular analysis of NAFLD (i.e., quantification of triglycerides). Quantification of triglycerides is performed in accordance with the general protocol described in Example 1.

[4] = system: patient at risk for developing NAFLD; experiment: Therapeutic use of phenylmethimazole to prevent development of NAFLD (Example 4); type: in vivo, human; details: once daily oral dose of 1 mg/kg chronically, contemplated result
Description: Experimental Protocol. A patient at risk for developing NAFLD is prescribed phenylmethimazole to prevent excess accumulation of fat. The patient takes a once daily oral dose of 1 mg/kg of body weight of phenylmethimazole chronically, during which fat content in the liver is determined via liver function testing, liver ultrasound, and liver biopsy.

Cn1c(-c2ccccc2)cnc1S [phenylmethimazole, 5-Phenylmethimazole]
fatty liver disease, macroscopically observed in liver tissue ([1]; ip 0.1 mg/kg, 1 mg/kg or 10 mg/kg once daily for 18 weeks, compared to HFD mice with sham injection or DMSO): much less fatty liver disease despite obesity
triglyceride concentration in liver tissue (FIG. 4) ([1]; ip 1 mg/kg or 10 mg/kg once daily for 18 weeks, compared to HFD mice with no phenylmethimazole): lower triglyceride concentration
prevention of NAFLD ([1]; ip 0.1, 1, 10 mg/kg once daily for 18 weeks): prevented NAFLD in the mice fed the HFD in a dose-dependent manner
fatty liver disease, microscopic observation of liver tissue (FIG. 3(B)-(D)) ([1]; ip 0.1, 1 or 10 mg/kg once daily for 18 weeks, compared to HFD mice with sham injection or DMSO): much less fatty liver disease
fat content in the patient's liver [2]: reduced relative to the baseline level
fat content in the liver tissue of the mice [3]: reduced relative to a baseline level
excess accumulation of fat in the liver [4]: no excess accumulation of fat has occurred
